{"source": "BindingDB's records for doi:10.1016/j.bmcl.2016.09.047", "about": "(Boehringer Ingelheim Pharmaceuticals, 2016)", "note": "“And” between values parts separate entries of the source, which are not always exact repeats. Equal values may be shown once."}
{"biological_target": "not listed separately", "assay": "Antagonist activity at human CCR10 expressed in mouse BA/F3 cells assessed as inhibition of human CCL27-dependent chemotaxis"}
{"smiles": "CC1CCN(C(=O)C(CCn2ccnc2[N+](=O)[O-])NS(=O)(=O)c2cc(Cl)c(N)c(Cl)c2)CC1", "note": "(centres undefined)", "IC50": "53 nM and 50 nM"}
{"smiles": "CC1CCN(C(=O)C(CCn2cccc2C#N)NS(=O)(=O)c2ccc3[nH]ccc3c2)CC1", "note": "(centres undefined)", "IC50": "13 nM"}
{"smiles": "CC1CCN(C(=O)C(CCn2ccnc2Cl)NS(=O)(=O)c2cc(Cl)c(N)c(Cl)c2)CC1", "note": "(centres undefined)", "IC50": "251 nM"}
{"smiles": "CC1CCN(C(=O)[C@@H](CCc2ccccc2)NS(=O)(=O)c2cc(Cl)c(N)c(Cl)c2)CC1", "IC50": "501 nM"}
{"smiles": "CC1CCN(C(=O)C(CCn2nccn2)NS(=O)(=O)c2cc(Cl)c(N)c(Cl)c2)CC1", "note": "(centres undefined)", "IC50": "1260 nM"}
{"smiles": "CC1CCN(C(=O)C(CCn2cccn2)NS(=O)(=O)c2cc(Cl)c(N)c(Cl)c2)CC1", "note": "(centres undefined)", "IC50": "1260 nM"}
{"smiles": "Cc1ccc(S(=O)(=O)NC(CCn2cccc2C#N)C(=O)N2CCC(C)CC2)c(C)c1N", "note": "(centres undefined)", "IC50": "79 nM"}
{"smiles": "CC1CCN(C(=O)C(CCn2cccc2C#N)NS(=O)(=O)c2ccc3cc[nH]c3c2)CC1", "note": "(centres undefined)", "IC50": "16 nM"}
{"biological_target": "T1, C-C chemokine receptor type 10 (Homo sapiens, UniProt P46092)", "T1 sequence (P46092 whole entry)": "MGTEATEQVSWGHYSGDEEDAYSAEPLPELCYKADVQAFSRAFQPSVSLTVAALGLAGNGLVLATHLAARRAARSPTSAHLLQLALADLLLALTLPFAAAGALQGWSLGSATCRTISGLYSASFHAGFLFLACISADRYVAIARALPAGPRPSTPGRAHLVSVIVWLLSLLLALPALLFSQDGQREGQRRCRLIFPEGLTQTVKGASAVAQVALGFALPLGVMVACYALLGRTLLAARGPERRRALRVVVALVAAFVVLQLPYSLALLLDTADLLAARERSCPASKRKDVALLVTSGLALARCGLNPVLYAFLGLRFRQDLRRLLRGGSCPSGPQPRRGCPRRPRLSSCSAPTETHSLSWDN", "assay": "Antagonist activity at human CCR10 expressed in mouse BA/F3 cells assessed as inhibition of human CCL27-dependent chemotaxis", "units": {"IC50": "nM"}}
{"smiles": "CC1CCN(C(=O)C(CCn2cccc2C#N)NS(=O)(=O)c2cc(Cl)c(N)c(Cl)c2)CC1", "note": "(centres undefined)", "IC50": 16}
